Test results from patent US20230241098A1, “ANTIVIRAL PHARMACEUTICAL COMPOSITION” (priority 2020, published 2023).
Values joined by “and” are separate entries in the source; they are usually repeats but may differ in a detail not shown here. Equal entries are not always repeated. Where two headings read alike, the source gives them in different places.

Assays:
[1] = test system: MucilAir nasal human 3D Epithelial model; assay: Cilia beating frequency (CBF); assay type: cell-based; settings: Example 4; day 4; once or twice daily; ribavirin basal
[2] = test system: respiratory syncytial virus A; assay type: cell-based; settings: RSV A
[3] = test system: MucilAir nasal human 3D Epithelial model
[4] = test system: HRV-C15; assay: Viral genome copy number (quantitative RT-PCR of apical washes) in HRV-C15-infected MucilAir nasal epithelia (Examples 1 and 3); assay type: cell-based, human rhinovirus; settings: for effect on RV-C15 replication (in words): rupintrivir basal, comparison of fucoidan sources
[5] = test system: RANTES; assay: RANTES release into basal medium (ELISA); assay type: cell-based, human
[6] = test system: MucilAir nasal human 3D Epithelial model; assay: Mucociliary clearance (MCC), bead velocity; assay type: cell-based; settings: Example 4; day 4; once or twice daily; ribavirin basal
[7] = test system: Interleukin 8 (IL-8); assay: Interleukin 8 release into basal medium (ELISA); assay type: cell-based, human
[8] = test system: MucilAir nasal human 3D Epithelial model; settings: Examples 2 and 4 (RSV A experiments); all measured timepoints
[9] = test system: HRV-B14; assay: Viral genome copy number (quantitative RT-PCR of apical washes) in HRV-B14-infected MucilAir nasal epithelia (Example 6); assay type: cell-based, human rhinovirus; settings: for Mean Log 10 ((Copies/ml) + 1), viral genome copy number: 5 μM, positive antiviral control
[10] = test system: HRV-A16; assay: Viral genome copy number (quantitative RT-PCR of apical washes) in HRV-A16-infected MucilAir nasal epithelia (Example 5); assay type: cell-based, human rhinovirus; settings: twice daily apical, rupintrivir 5 μM basal
[11] = Example 4, once or twice daily (25 μg Test UP: see once daily exception), ribavirin basal

## NC(=O)c1ncn([C@@H]2O[C@H](CO)[C@@H](O)[C@H]2O)n1 [Ribavirin, ribavirin]
[1]
  effect on RSV A induced cilia impairment (in words): prevented
[2]; Example 2, 3.5 hours post infection, AP apical / BL basal as in label, ribavirin 100 uM basal, 0.00 = below detection limit
  Mean viral genome copy number: 5.63 Log 10 ((Copies/ml) + 1) and 3.52 Log 10 ((Copies/ml) + 1)
[2]; Example 2, 24 hours post infection, AP apical / BL basal as in label, ribavirin 100 uM basal, 0.00 = below detection limit
  Mean viral genome copy number: 6.48 Log 10 ((Copies/ml) + 1) and 10.22 Log 10 ((Copies/ml) + 1)
[2]; Example 2, 48 hours post infection, AP apical / BL basal as in label, ribavirin 100 uM basal
  Mean viral genome copy number: 7.07 Log 10 ((Copies/ml) + 1) and 11.46 Log 10 ((Copies/ml) + 1)
[2]; Example 2, 72 hours post infection, AP apical / BL basal as in label, ribavirin 100 uM basal
  Mean viral genome copy number: 7.78 Log 10 ((Copies/ml) + 1) and 10.33 Log 10 ((Copies/ml) + 1)
[2]; Example 2, 96 hours post infection, AP apical / BL basal as in label, ribavirin 100 uM basal
  Mean viral genome copy number: 8.32 Log 10 ((Copies/ml) + 1) and 9.09 Log 10 ((Copies/ml) + 1)
[2]; Example 2, ribavirin 100 μM basal
  decrease of the viral load: 3 logs
[2]; Example 4, 3.5 hours post infection, first block of Table 12, 1x (once daily apical), ribavirin 100 μM basal
  Mean viral genome copy number: 6.76 Log 10 ((Copies/ml) + 1)
[2]; Example 4, 3.5 hours post infection, second block of Table 12, head prints 1x, ribavirin 100 μM basal
  Mean viral genome copy number: 6.76 Log 10 ((Copies/ml) + 1)
[2]; Example 4, 24 hours post infection, first block of Table 12, 1x (once daily apical), ribavirin 100 μM basal
  Mean viral genome copy number: 7.06 Log 10 ((Copies/ml) + 1)
[2]; Example 4, 24 hours post infection, second block of Table 12, head prints 1x, ribavirin 100 μM basal
  Mean viral genome copy number: 7.06 Log 10 ((Copies/ml) + 1)
[2]; Example 4, 48 hours post infection, first block of Table 12, 1x (once daily apical), ribavirin 100 μM basal
  Mean viral genome copy number: 6.79 Log 10 ((Copies/ml) + 1)
[2]; Example 4, 48 hours post infection, second block of Table 12, head prints 1x, ribavirin 100 μM basal
  Mean viral genome copy number: 6.79 Log 10 ((Copies/ml) + 1)
[2]; Example 4, 72 hours post infection, first block of Table 12, 1x (once daily apical), ribavirin 100 μM basal
  Mean viral genome copy number: 7.40 Log 10 ((Copies/ml) + 1)
[2]; Example 4, 72 hours post infection, second block of Table 12, head prints 1x, ribavirin 100 μM basal
  Mean viral genome copy number: 7.40 Log 10 ((Copies/ml) + 1)
[2]; Example 4, 96 hours post infection, first block of Table 12, 1x (once daily apical), ribavirin 100 μM basal
  Mean viral genome copy number: 8.89 Log 10 ((Copies/ml) + 1)
[2]; Example 4, 96 hours post infection, second block of Table 12, head prints 1x, ribavirin 100 μM basal
  Mean viral genome copy number: 8.89 Log 10 ((Copies/ml) + 1)
[3]; Example 4, RSV A-inoculated inserts, once or twice daily, ribavirin basal
  TEER of inoculated inserts (in words): TEER values similar to that of the mock inserts
[4]; Example 3, HRV-C15, 3.5 hours post infection, 1x (once daily apical), positive control basal, 0.00 = below detection limit
  Mean viral genome copy number: 0.00 Log 10 ((Copies/ml) + 1)
[4]; Example 3, HRV-C15, 3.5 hours post infection, 2x (twice daily apical), positive control basal, 0.00 = below detection limit
  Mean viral genome copy number: 0.00 Log 10 ((Copies/ml) + 1)
[4]; Example 3, HRV-C15, 24 hours post infection, 1x (once daily apical), positive control basal
  Mean viral genome copy number: 5.14 Log 10 ((Copies/ml) + 1)
[4]; Example 3, HRV-C15, 24 hours post infection, 2x (twice daily apical), positive control basal
  Mean viral genome copy number: 5.14 Log 10 ((Copies/ml) + 1)
[4]; Example 3, HRV-C15, 48 hours post infection, 1x (once daily apical), positive control basal
  Mean viral genome copy number: 7.63 Log 10 ((Copies/ml) + 1)
[4]; Example 3, HRV-C15, 48 hours post infection, 2x (twice daily apical), positive control basal
  Mean viral genome copy number: 7.63 Log 10 ((Copies/ml) + 1)
[4]; Example 3, HRV-C15, 72 hours post infection, 1x (once daily apical), positive control basal
  Mean viral genome copy number: 6.89 Log 10 ((Copies/ml) + 1)
[4]; Example 3, HRV-C15, 72 hours post infection, 2x (twice daily apical), positive control basal
  Mean viral genome copy number: 6.89 Log 10 ((Copies/ml) + 1)
[4]; Example 3, HRV-C15, 96 hours post infection, 1x (once daily apical), positive control basal
  Mean viral genome copy number: 6.24 Log 10 ((Copies/ml) + 1)
[4]; Example 3, HRV-C15, 96 hours post infection, 2x (twice daily apical), positive control basal
  Mean viral genome copy number: 6.24 Log 10 ((Copies/ml) + 1)
[5]; [11]
  effect on RSV A-induced RANTES release (in words): effectively prevented the virus-induced increase of RANTES release
[6]
  effect on RSV A induced MCC reduction (in words): attenuated this RSV A induced MCC reduction
[7]; [11]
  effect on RSV A induced IL-8 release (in words): prevented the RSV A induced IL-8 release

## Polyethylene glycol tert-octyl phenyl ether [Triton X-100]
[3]; positive control for cytotoxicity, 10% (v/v) in normal saline, 50 μl apically, Examples 1 to 4
  TEER: below 100 Ω·cm^2

## CCOC(=O)/C=C/[C@H](C[C@@H]1CCNC1=O)NC(=O)[C@@H](CC(=O)[C@@H](NC(=O)c1cc(C)on1)C(C)C)Cc1ccc(F)cc1 [Rupintrivir]
[3]; Example 1, HRV-C15-inoculated inserts, apical or basal as in label
  effect on HRV-C15 induced transient TEER decrease (in words): prevented this transient TEER decrease
[3]; Example 3, HRV-C15-inoculated inserts
  TEER of inoculated inserts: above 100 Ω·cm^2
[4]; Example 1, HRV-C15, 3.5 hours post infection, AP apical / BL basal as in label, rupintrivir 5 μM basal, 0.00 = below detection limit
  Mean viral genome copy number: 0.00 Log 10 ((Copies/ml) + 1)
[4]; Example 1, HRV-C15, 24 hours post infection, AP apical / BL basal as in label, rupintrivir 5 μM basal, 0.00 = below detection limit
  Mean viral genome copy number: 5.57 Log 10 ((Copies/ml) + 1)
[4]; Example 1, HRV-C15, 48 hours post infection, AP apical / BL basal as in label, rupintrivir 5 μM basal
  Mean viral genome copy number: 6.46 Log 10 ((Copies/ml) + 1)
[4]; Example 1, HRV-C15, 72 hours post infection, AP apical / BL basal as in label, rupintrivir 5 μM basal
  Mean viral genome copy number: 6.69 Log 10 ((Copies/ml) + 1)
[4]; Example 1, HRV-C15, 96 hours post infection, AP apical / BL basal as in label, rupintrivir 5 μM basal
  Mean viral genome copy number: 7.17 Log 10 ((Copies/ml) + 1)
[4]; Example 1, HRV-C15, rupintrivir 5 μM basal, on average
  decrease of the viral load: two
[4]; Example 3
  effect on RV-C15 replication (in words): most effective inhibitor of RV-C15 replication
[4]; Example 3, listed as rupintrivir
  effect on RV-C15 replication (in words): significantly reduced viral genome copy number
[8]
  cytotoxicity (LDH, Triton X-100 = 100%): below 5%
[5]; Example 3, RV-C15, rupintrivir basal
  effect on virus-induced increase of RANTES release (in words): effectively prevented the virus-induced increase of RANTES release
[9]; time 3.5 h
  Mean Log 10 ((Copies/ml) + 1), viral genome copy number: 0.00 Log 10 ((Copies/ml) + 1)
[9]; time 24 h
  Mean Log 10 ((Copies/ml) + 1), viral genome copy number: 3.65 Log 10 ((Copies/ml) + 1)
[9]; time 48 h
  Mean Log 10 ((Copies/ml) + 1), viral genome copy number: 4.23 Log 10 ((Copies/ml) + 1)
[9]; time 72 h
  Mean Log 10 ((Copies/ml) + 1), viral genome copy number: 4.26 Log 10 ((Copies/ml) + 1)
[9]; time 96 h
  Mean Log 10 ((Copies/ml) + 1), viral genome copy number: 0.00 Log 10 ((Copies/ml) + 1)
[9]; RV-B14, Day 4
  detection of virus (in words): no more virus was detected
[10]; 3.5 hours post infection, 0.00 = below detection limit
  Mean viral genome copy number: 0.00 Log 10 ((Copies/ml) + 1)
[10]; 24 hours post infection, 0.00 = below detection limit
  Mean viral genome copy number: 0.00 Log 10 ((Copies/ml) + 1)
[10]; 48 hours post infection, 0.00 = below detection limit
  Mean viral genome copy number: 4.70 Log 10 ((Copies/ml) + 1)
[10]; 72 hours post infection, 0.00 = below detection limit
  Mean viral genome copy number: 5.30 Log 10 ((Copies/ml) + 1)
[10]; 96 hours post infection
  Mean viral genome copy number: 3.77 Log 10 ((Copies/ml) + 1)
[7]; Example 1, HRV-C15-inoculated inserts, day 4 post infection
  effect on RV-C15 induced IL-8 release (in words): prevented
[7]; Example 2, RSV A-inoculated inserts, day 2 and day 4 as stated
  effect on RSV A induced IL-8 release (in words): prevented
